Assay: Kinetic inertness: acid-assisted dechelation in excess HCl
Assay type: physicochemical
Conditions: for t½ (0.1 M HCl, 80 °C) / t½ (1.0 M HCl, 80 °C) / t½ (6.0 M HCl, 80 °C) / t½ (0.1 M HCl, 25 °C): dechelation half-life, HPLC-UV after 1 h, 1 day, 1 week, 1 month, ± error of the fit; for t½ (0.1 M HCl, 80 °C) / t½ (0.1 M HCl, 25 °C): 0.5 mM chelate in 0.1 M HCl; for t½ (0.1 M HCl, 80 °C) / t½ (1.0 M HCl, 80 °C) / t½ (0.1 M HCl, 25 °C): exponential decay fit; for t½ (1.0 M HCl, 80 °C): 0.5 mM chelate in 1.0 M HCl; for t½ (6.0 M HCl, 80 °C): 0.5 mM chelate in 6.0 M HCl, fit y = exp(−x/t), t½ = ln(2) × t; for abundance of intact chelate: section above Supp. Fig 16, head with acid, temperature and time not given; for half-life / half-life, h: Figure 2A

| Compound | t½ (0.1 M HCl, 80 °C) (80 °C) | t½ (1.0 M HCl, 80 °C) (80 °C) | t½ (6.0 M HCl, 80 °C) (80 °C) | abundance of intact chelate [%] | half-life (0.1 M HCl, 25 °C) [h] | half-life, h (0.1 M HCl, 80 °C) | half-life, h (1.0 M HCl, 80 °C) | half-life, h (6.0 M HCl, 80 °C) | half-life, h (0.1 M HCl, 25 °C) | half-life (0.1 M HCl, 80 °C) [h] | half-life (1.0 M HCl, 80 °C) [h] | half-life (6.0 M HCl, 80 °C) [h] | t½ (0.1 M HCl, 25 °C) (25 °C) | estimated half-life (6.0 M HCl at 80 °C) [years] | intact chelate (ratio NO2BnDOTA/[Lu(NO2BnDOTA)]) (0.1 M HCl at 80 °C after 1 h, HPLC-UV, initial and repeated injection identical) [%] |
| --- | --- | --- | --- | --- | --- | --- | --- | --- | --- | --- | --- | --- | --- | --- | --- |
| O=C([O-])CN1CCN2CCN(CC(=O)[O-])CCN(CC1)Cc1cccc(n1)-c1cn(nn1)Cc1cc(-c3ccccc3)cc(n1)C2.[Gd+3] [1,4-cz-[Gd(PhL1)]] | too unstable | too unstable | too unstable | 97.8 |  |  |  |  |  |  |  |  |  |  |  |
| O=C([O-])CN1CCN2CCN(CC(=O)[O-])CCN(CC1)Cc1cccc(n1)-c1cn(nn1)Cc1cc(-c3ccccc3)cc(n1)C2.[Lu+3] [1,4-cz-[Lu(PhL1)]] | too unstable | too unstable | too unstable | 98.7 |  |  |  |  |  |  |  |  |  |  |  |
| O=C([O-])CN1CCN2CCN(CC(=O)[O-])CCN(CC1)Cc1cccc(n1)-c1cnnn1Cc1cc(-c3ccccc3)cc(n1)C2.[Ca+2] [Ph{Ca}] | too unstable | too unstable | too unstable | 38.9 |  |  |  |  |  |  |  |  |  |  |  |
| O=C([O-])CN1CCN2CCN(CC(=O)[O-])CCN(CC1)Cc1cccc(n1)-c1cnnn1Cc1cc(-c3ccccc3)cc(n1)C2.[Ce+3] [Ph{Ce}] | too unstable | too unstable | too unstable |  | 16.5 | too unstable | too unstable | too unstable |  |  |  |  |  |  |  |
| O=C([O-])CN1CCN2CCN(CC(=O)[O-])CCN(CC1)Cc1cccc(n1)-c1cnnn1Cc1cc(-c3ccccc3)cc(n1)C2.[Dy+3] [Ph{Dy}] |  |  |  | 100.0 |  |  |  |  | too stable | 95000 | 3500 | 12 | too stable |  |  |
| O=C([O-])CN1CCN2CCN(CC(=O)[O-])CCN(CC1)Cc1cccc(n1)-c1cnnn1Cc1cc(-c3ccccc3)cc(n1)C2.[Er+3] [Ph{Er}] | too stable |  |  | 100.0 |  | too stable |  |  | too stable |  | 59200 | 343 | too stable |  |  |
| O=C([O-])CN1CCN2CCN(CC(=O)[O-])CCN(CC1)Cc1cccc(n1)-c1cnnn1Cc1cc(-c3ccccc3)cc(n1)C2.[Eu+3] [Ph{Eu}] |  |  | too unstable |  |  |  |  | too unstable | too stable | 380 | 7.3 |  | too stable |  |  |
| O=C([O-])CN1CCN2CCN(CC(=O)[O-])CCN(CC1)Cc1cccc(n1)-c1cnnn1Cc1cc(-c3ccccc3)cc(n1)C2.[Gd+3] [Ph{Gd}] |  |  |  |  |  |  |  |  | too stable | 2470 | 30.4 | 0.17 | too stable |  |  |
| O=C([O-])CN1CCN2CCN(CC(=O)[O-])CCN(CC1)Cc1cccc(n1)-c1cnnn1Cc1cc(-c3ccccc3)cc(n1)C2.[Ho+3] [Ph{Ho}] | too stable |  |  | 100.0 |  | too stable |  |  | too stable |  | 13200 | 68.2 | too stable |  |  |
| O=C([O-])CN1CCN2CCN(CC(=O)[O-])CCN(CC1)Cc1cccc(n1)-c1cnnn1Cc1cc(-c3ccccc3)cc(n1)C2.[Lu+3] [Ph{Lu}] | too stable | too stable |  | 100.0 |  | too stable | too stable |  | too stable |  |  | 25300 | too stable | ~3 |  |
| O=C([O-])CN1CCN2CCN(CC(=O)[O-])CCN(CC1)Cc1cccc(n1)-c1cnnn1Cc1cc(-c3ccccc3)cc(n1)C2.[Nd+3] [Ph{Nd}] |  | too unstable | too unstable |  | 179 |  | too unstable | too unstable |  | 2.55 |  |  |  |  |  |
| O=C([O-])CN1CCN2CCN(CC(=O)[O-])CCN(CC1)Cc1cccc(n1)-c1cnnn1Cc1cc(-c3ccccc3)cc(n1)C2.[Pr+3] [Ph{Pr}] |  | too unstable | too unstable |  | 51.7 |  | too unstable | too unstable |  | 0.467 |  |  |  |  |  |
| O=C([O-])CN1CCN2CCN(CC(=O)[O-])CCN(CC1)Cc1cccc(n1)-c1cnnn1Cc1cc(-c3ccccc3)cc(n1)C2.[Sm+3] [Ph{Sm}] |  |  | too unstable |  | 13400 |  |  | too unstable |  | 111 | 1.46 |  |  |  |  |
| O=C([O-])CN1CCN2CCN(CC(=O)[O-])CCN(CC1)Cc1cccc(n1)-c1cnnn1Cc1cc(-c3ccccc3)cc(n1)C2.[Tb+3] [Ph{Tb}] |  |  |  |  |  |  |  |  | too stable | 31700 | 372 | 2.1 | too stable |  |  |
| O=C([O-])CN1CCN2CCN(CC(=O)[O-])CCN(CC1)Cc1cccc(n1)-c1cnnn1Cc1cc(-c3ccccc3)cc(n1)C2.[Tm+3] [Ph{Tm}] | too stable | too stable |  | 100.0 |  | too stable | too stable |  | too stable |  |  | 1360 | too stable |  |  |

Second part, the molecule after the results:

| t½ (0.1 M HCl, 80 °C) (80 °C) | t½ (1.0 M HCl, 80 °C) (80 °C) | t½ (6.0 M HCl, 80 °C) (80 °C) | abundance of intact chelate [%] | half-life (0.1 M HCl, 25 °C) [h] | half-life, h (0.1 M HCl, 80 °C) | half-life, h (1.0 M HCl, 80 °C) | half-life, h (6.0 M HCl, 80 °C) | half-life, h (0.1 M HCl, 25 °C) | half-life (0.1 M HCl, 80 °C) [h] | half-life (1.0 M HCl, 80 °C) [h] | half-life (6.0 M HCl, 80 °C) [h] | t½ (0.1 M HCl, 25 °C) (25 °C) | estimated half-life (6.0 M HCl at 80 °C) [years] | intact chelate (ratio NO2BnDOTA/[Lu(NO2BnDOTA)]) (0.1 M HCl at 80 °C after 1 h, HPLC-UV, initial and repeated injection identical) [%] | Compound |
| --- | --- | --- | --- | --- | --- | --- | --- | --- | --- | --- | --- | --- | --- | --- | --- |
| too unstable | too unstable | too unstable |  | 2.48 | too unstable | too unstable | too unstable |  |  |  |  |  |  |  | O=C([O-])CN1CCN2CCN(CC(=O)[O-])CCN(CC1)Cc1cccc(n1)-c1cnnn1Cc1cc(-c3ccccc3)cc(n1)C2.[La+3] [Ph{La}] |
| too stable | too stable |  | 100.0 |  | too stable | too stable |  | too stable |  |  | 4690 | too stable |  |  | O=C([O-])CN1CCN2CCN(CC(=O)[O-])CCN(CC1)Cc1cccc(n1)-c1cnnn1Cc1cc(-c3ccccc3)cc(n1)C2.[Yb+3] [Ph{Yb}] |
|  |  |  | 100.0 |  |  |  |  |  |  |  |  | too stable |  |  | O=C([O-])CN1CCN2CCN(CC(=O)[O-])CCN(CC1)Cc1cccc(n1)-c1cnnn1Cc1cc(-c3ccccc3)cc(n1)C2.[Y+3] [Ph{Y}] |
|  |  | too unstable |  |  |  |  |  |  |  |  |  |  |  |  | O=C([O-])CN1CCN(CC(=O)[O-])CCN(CC(=O)[O-])C(Cc2ccc([N+](=O)[O-])cc2)CN(CC(=O)[O-])CC1.[Gd+3] (stereo not drawn) [[Gd(NO2BnDOTA)], reference compound] |
|  | too unstable | too unstable |  |  |  |  |  |  |  |  |  |  |  |  | O=C([O-])CN1CCN(CC(=O)[O-])CCN(CC(=O)[O-])C(Cc2ccc([N+](=O)[O-])cc2)CN(CC(=O)[O-])CC1.[La+3] (stereo not drawn) [[La(NO2BnDOTA)], reference compound] |
|  |  | too unstable |  |  |  |  |  |  |  |  |  |  |  | 76 | O=C([O-])CN1CCN(CC(=O)[O-])CCN(CC(=O)[O-])C(Cc2ccc([N+](=O)[O-])cc2)CN(CC(=O)[O-])CC1.[Lu+3] (stereo not drawn) [[Lu(NO2BnDOTA)], reference compound] |

Reference: publication PMC11561307, “Ultra-inert lanthanide chelates as mass tags for multiplexed bioanalysis” (Nature Communications, 2024)
